Results on one compound are retold here after patent publication US20070299040A1, “Composition for Preventing a Cold” (BIOTECH INSTITUTE FOR INTERNATIONAL INNOVATION, INC., priority 2004, published 2007).

Several values for one entry are separate records, joined by “and”; a condition that tells them apart may be missing. Identical values can stand only once.

Common to all, as to assay type: in vivo, human
Test [1] relates to INF-γ. In words: Cytokine in serum by ELISA (Experimental Example 4). The settings on record: samples from persons after 40 months of intake; 10 samples. The method, then: (§1) After such cultivating, the plates were washed, biotynilated secondary antibody was filled in each plate by […], and streptavidin ALP was added thereto, which was cultivated at 37° C. for 30 minutes. After washing the plates again, alkaline phosphatase PNPP was added thereto, and the plates were cultivated for 30 minutes and measured with ELISA reader at 405 nm.
On the technique in general: An ELISA detects its analyte on a solid surface through an enzyme-linked reagent.

In test [2] the test system is IL-10. Described as above. The settings on record: samples from persons after 40 months of intake. The method, then:
as §1

Test [3] deals with IL-4. Described as above. The note with it: samples from persons after 40 months of intake; 10 samples. The method, then: as §1
The subject of test [4] is IL-12. The description is as above. The settings on record: samples from persons after 40 months of intake; 10 samples. The procedure:
as §1

For test [5], the system named is IL-2. The description is as above. The note with it: samples from persons after 40 months of intake; 10 samples. The procedure:
as §1

For test [6], the system named is cold. In words: Analysis of cold cases, composition of Example 8 vs vitamin C and placebo (Experimental Example 3). The text has this:
The present experiment example analyzed cold cases in the experiment group who took the composition of Example 8, and the control groups I and II who took vitamin C and placebo (wheat flour) respectively, throughout 40 months from 1999 to 2003. The intake is the same as 1 g after meal. Here, ‘cold’ is defined to show high fever or slight fever, sore throat, dry cough, headache, myalgia, and chill.
As a result of the above experiment, the average of cold case a year per person in the experiment group who took the present composition, the control group I who took vitamin C, and the control group II who took placebo was 0, 1.5, and 5.6, respectively, all of which are statistically significant difference under 0.05% of significance probability. In sum, the composition of the present invention accomplished 100% of cold prevention effect.

Consider `O=C1O[C@H]([C@@H](O)CO)C(O)=C1O` [Vitamin C, ascorbic acid], for which the “Cytokine in serum INF-γ” value in test [1] stood at 68 ± 12 pg/mL. In test [2], the “Cytokine in serum IL-10” value worked out at 10 ± 8 pg/mL. Also, in test [3], the “Cytokine in serum IL-4” value amounted to 0.14 ± 0.03 pg/mL. For the same compound, the “Cytokine in serum IL-12” value in test [4] was found to be 20 ± 7 pg/mL. Further, the “Cytokine in serum IL-2” value in test [5] came out at 51 ± 19 pg/mL. For the same compound, in test [6] (40 months, 1 g after meal), the “average of cold case a year per person” value turned out to be 1.5. For the same compound, the “cold prevention effect (in words)” value in test [6] (group administrating vitamin C only) is given as “some cold prevention effect”. Moreover, the “Frequency of cold in the control group taking vitamin C” value in test [6] (per person (one line per subject), 1 g after meal, 40 months 1999-2003) was 4 (7×) and 5 (5×) and 7 and 6 (2×).
